Target: T1, HPK1 (Homo sapiens, UniProt Q92918)
T1 construct: A HiBiT tag was introduced by CRISPR on the N terminus of HPK1 in Jurkat cells; host or cells: Jurkat cells (ATCC TIB-152), monoclonal line with CRISPR knock-in of HiBiT at the endogenous HPK1 locus
Test: HPK1 Cellular HiBit Degradation Assay
Format: cell-based
Settings: HiBiT HPK1 Jurkat cells, 24 hrs; for DC50: concentration at which 50% of HPK1 was remaining, read-out: DC50 Category; for Dmax: Jurkat, maximum degradation vs DMSO vehicle control, read-out: Dmax Category
Method in brief: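 Degraders are dosed in an 11-point series (10 uM to 0.1 nM final) onto Jurkat cells carrying an N-terminal HiBiT tag on endogenous HPK1. After 24 hrs at 37° C, lysis-based HiBiT luminescence quantifies remaining HPK1 relative to vehicle, and curve fitting gives DC50 and Dmax.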

T1 sequence (Q92918 whole entry): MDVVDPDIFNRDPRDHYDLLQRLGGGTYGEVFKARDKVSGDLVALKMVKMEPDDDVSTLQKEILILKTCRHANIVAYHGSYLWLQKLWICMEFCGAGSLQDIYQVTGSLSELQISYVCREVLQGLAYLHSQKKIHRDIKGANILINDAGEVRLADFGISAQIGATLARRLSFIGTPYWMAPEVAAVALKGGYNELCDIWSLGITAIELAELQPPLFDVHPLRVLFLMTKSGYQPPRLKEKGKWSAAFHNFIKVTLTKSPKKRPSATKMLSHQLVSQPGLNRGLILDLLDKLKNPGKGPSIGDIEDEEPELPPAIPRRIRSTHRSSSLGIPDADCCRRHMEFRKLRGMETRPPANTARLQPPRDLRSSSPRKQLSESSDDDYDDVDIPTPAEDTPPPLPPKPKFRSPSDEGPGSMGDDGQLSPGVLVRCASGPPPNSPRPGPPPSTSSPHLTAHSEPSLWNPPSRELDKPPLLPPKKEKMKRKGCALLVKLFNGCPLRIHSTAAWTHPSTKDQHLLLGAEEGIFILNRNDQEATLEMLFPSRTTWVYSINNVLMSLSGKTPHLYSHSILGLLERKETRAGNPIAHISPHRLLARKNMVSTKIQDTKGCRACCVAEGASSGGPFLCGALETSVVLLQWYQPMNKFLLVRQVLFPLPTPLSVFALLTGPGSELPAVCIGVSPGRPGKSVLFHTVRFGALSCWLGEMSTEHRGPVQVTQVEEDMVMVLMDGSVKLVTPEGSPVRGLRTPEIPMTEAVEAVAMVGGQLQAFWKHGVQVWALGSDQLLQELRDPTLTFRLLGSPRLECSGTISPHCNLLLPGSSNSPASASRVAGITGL

Row | DC50 [µM] | Dmax [%] | Compound
1 | < 0.1 | 50 to 70 | CC(C)n1cnc2cc(-c3ccc4c(c3)N([C@H]3C[C@@H](N5CCCCC5)C3)C(=O)C43CCN(C(=O)C4CCN(C(=O)[C@H]5CC[C@H](Oc6ccc(C7CCC(=O)NC7=O)cc6)CC5)CC4)CC3)nc(Nc3ccncc3F)c21 (mixture of isomers) [Example 61, (3RS)-3-(4-{[(1R,4R)-4-{4-[(6-{4-[(3-fluoropyridin-4-yl)amino]-3-(propan-2-yl)-3H-imidazo[4,5-c]pyridin-6-yl}-2-oxo-1-[(1S,3S)-3-(piperidin-1-yl)cyclobutyl]-1,2-dihydrospiro[indole-3,4′-piperidin]-1′-yl)carbonyl]piperidine-1-carbonyl}cyclohexyl]oxy}phenyl)piperidine-2,6-dione]
2 | < 0.1 | 70 to 85 | CC(C)n1cnc2cc(-c3ccc4c(c3)N([C@H]3C[C@@H](N5CCCCC5)C3)C(=O)C43CCN(C(=O)C4(F)CCN(C(=O)C5CCN(c6ccc(C7CCC(=O)NC7=O)cn6)CC5)CC4)CC3)nc(NC3CC3)c21 (mixture of isomers) [Example 277, (3RS)-3-(6-{4-[4-({6-[4-(cyclopropylamino)-3-(propan-2-yl)-3H-imidazo[4,5-c]pyridin-6-yl]-2-oxo-1-[(1S,3S)-3-(piperidin-1-yl)cyclobutyl]-1,2-dihydrospiro[indole-3,4′-piperidin]-1′-yl}carbonyl)-4-fluoropiperidine-1-carbonyl]piperidin-1-yl}pyridin-3-yl)piperidine-2,6-dione]
3 | < 0.1 | 70 to 85 | CC(C)n1cnc2cc(-c3ccc4c(c3)N([C@H]3C[C@@H](N5CCCCC5)C3)C(=O)C43CCN(C(=O)[C@H]4CC[C@H](C(=O)N5CCC(Nc6ccc(C7CCC(=O)NC7=O)cn6)CC5)CC4)CC3)nc(Nc3ccccc3F)c21 (stereo partly drawn) [Example 26, 3-(6-((1-((1R,4R)-4-(6-(4-((2-fluorophenyl)amino)-3-isopropyl-3H-imidazo[4,5-c]pyridin-6-yl)-2-oxo-1-((1s,3S)-3-(piperidin-1-yl)cyclobutyl)spiro[indoline-3,4′-piperidine]-1′-carbonyl)cyclohexane-1-carbonyl)piperidin-4-yl)amino)pyridin-3-yl)piperidine-2,6-dione]
4 | < 0.1 | > 85 | CC(C)n1cnc2cc(-c3ccc4c(c3)N([C@H]3C[C@@H](N5CCCCC5)C3)C(=O)C43CCN(C(=O)[C@H]4CC[C@H](C(=O)N5CCC(N(C)c6ccc(C7CCC(=O)NC7=O)cn6)CC5)CC4)CC3)nc(Nc3ccccc3F)c21 (mixture of isomers) [Example 138, (3RS)-3-{6-[methyl({1-[(1R,4R)-4-[(6-{4-[(2-fluorophenyl)amino]-3-(propan-2-yl)-3H-imidazo[4,5-c]pyridin-6-yl}-2-oxo-1-[(1S,3S)-3-(piperidin-1-yl)cyclobutyl]-1,2-dihydrospiro[indole-3,4′-piperidin]-1′-yl)carbonyl]cyclohexanecarbonyl]piperidin-4-yl})amino]pyridin-3-yl}piperidine-2,6-dione]
5 | < 0.1 | 70 to 85 | CC(C)n1cnc2cc(-c3ccc4c(c3)N([C@H]3C[C@@H](N5CCCCC5)C3)C(=O)C43CCN(C(=O)C4(C)CCN(C(=O)[C@H]5CC[C@H](Oc6ccc(N7CCC(=O)NC7=O)cn6)CC5)CC4)CC3)nc(Nc3ccccc3F)c21 [Example 108, 1-(6-{[(1R,4R)-4-{4-[(6-{4-[(2-fluorophenyl)amino]-3-(propan-2-yl)-3H-imidazo[4,5-c]pyridin-6-yl}-2-oxo-1-[(1S,3S)-3-(piperidin-1-yl)cyclobutyl]-1,2-dihydrospiro[indole-3,4′-piperidin]-1′-yl)carbonyl]-4-methylpiperidine-1-carbonyl}cyclohexyl]oxy}pyridin-3-yl)-1,3-diazinane-2,4-dione]
6 | < 0.1 | 70 to 85 | CC(C)n1cnc2cc(-c3ccc4c(c3)N([C@H]3C[C@@H](N5CCCCC5)C3)C(=O)C43CCN(C(=O)C4CCCN(C(=O)C5CCN(c6ccc(C7CCC(=O)NC7=O)cn6)CC5)C4)CC3)nc(NC3CC3)c21 (mixture of isomers) [Example 272, (3RS)-3-(6-{4-[3-({6-[4-(cyclopropylamino)-3-(propan-2-yl)-3H-imidazo[4,5-c]pyridin-6-yl]-2-oxo-1-[(1S,3S)-3-(piperidin-1-yl)cyclobutyl]-1,2-dihydrospiro[indole-3,4′-piperidin]-1′-yl}carbonyl)piperidine-1-carbonyl]piperidin-1-yl}pyridin-3-yl)piperidine-2,6-dione]
7 | < 0.1 | 70 to 85 | CC(C)n1cnc2cc(-c3ccc4c(c3)N([C@H]3C[C@@H](N5CCCCC5)C3)C(=O)C43CCN(C(=O)C4(C)CCN(C(=O)[C@H]5CC[C@H](Oc6ccc(C7CCC(=O)NC7=O)cn6)CC5)CC4)CC3)nc(Nc3ccncc3F)c21 (mixture of isomers) [Example 106]
8 | < 0.1 | 70 to 85 | CC(C)n1cnc2cc(-c3ccc4c(c3)N([C@H]3C[C@@H](N5CCCCC5)C3)C(=O)C43CCN(C(=O)C4CCN(C(=O)CC5CCN(c6ccc(C7CCC(=O)NC7=O)cn6)CC5)CC4)CC3)nc(Oc3ccccc3F)c21 (stereo partly drawn) [Example 167, 3-[6-(4-{2-[4-({6-[4-(2-fluorophenoxy)-3-(propan-2-yl)-3H-imidazo[4,5-c]pyridin-6-yl]-2-oxo-1-[(1S,3S)-3-(piperidin-1-yl)cyclobutyl]-1,2-dihydrospiro[indole-3,4′-piperidin]-1′-yl}carbonyl)piperidin-1-yl]-2-oxoethyl}piperidin-1-yl)pyridin-3-yl]piperidine-2,6-dione]
9 | 0.1 to 0.5 | 50 to 70 | CC(C)n1cnc2cc(-c3ccc4c(c3)N([C@H]3C[C@@H](N5CCCCC5)C3)C(=O)C43CCN(C(=O)C4CCN(C(=O)[C@H]5CC[C@H](Nc6ccc(C7CCC(=O)NC7=O)cc6)CC5)CC4)CC3)nc(NC3CC3)c21 (mixture of isomers) [Example 53, (3RS)-3-(4-{[(1R,4R)-4-[4-({6-[4-(cyclopropylamino)-3-(propan-2-yl)-3H-imidazo[4,5-c]pyridin-6-yl]-2-oxo-1-[(1S,3S)-3-(piperidin-1-yl)cyclobutyl]-1,2-dihydrospiro[indole-3,4′-piperidin]-1′-yl}carbonyl)piperidine-1-carbonyl]cyclohexyl]amino}phenyl)piperidine-2,6-dione]
10 | 0.1 to 0.5 | 70 to 85 | Cc1cc(N2CCC(C(=O)N3CCC(C)(C(=O)N4CCC5(CC4)C(=O)N([C@H]4C[C@@H](N6CCCCC6)C4)c4cc(-c6cc7ncn(C(C)C)c7c(NC7CC7)n6)ccc45)CC3)CC2)ccc1C1CCC(=O)NC1=O (mixture of isomers) [Example 227, (3RS)-3-(4-{4-[4-({6-[4-(cyclopropylamino)-3-(propan-2-yl)-3H-imidazo[4,5-c]pyridin-6-yl]-2-oxo-1-[(1S,3S)-3-(piperidin-1-yl)cyclobutyl]-1,2-dihydrospiro[indole-3,4′-piperidin]-1′-yl}carbonyl)-4-methylpiperidine-1-carbonyl]piperidin-1-yl}-2-methylphenyl)piperidine-2,6-dione]
11 | < 0.1 | > 85 | CC(C)n1cnc2cc(-c3ccc4c(c3)N([C@H]3C[C@@H](N5CCCCC5)C3)C(=O)C43CCN(S(=O)(=O)C4CCN(C(=O)C5CCN(c6ccc(C7CCC(=O)NC7=O)cn6)CC5)CC4)CC3)nc(NC3CC3)c21 (mixture of isomers) [Example 159, (3RS)-3-(6-{4-[4-({6-[4-(cyclopropylamino)-3-(propan-2-yl)-3H-imidazo[4,5-c]pyridin-6-yl]-2-oxo-1-[(1S,3S)-3-(piperidin-1-yl)cyclobutyl]-1,2-dihydrospiro[indole-3,4′-piperidin]-1′-yl}sulfonyl)piperidine-1-carbonyl]piperidin-1-yl}pyridin-3-yl)piperidine-2,6-dione]
12 | < 0.1 | 50 to 70 | CC(C)n1cnc2cc(-c3ccc4c(c3)N([C@H]3C[C@@H](N5CCCCC5)C3)C(=O)C43CCN(C(=O)C4(C)CCN(C(=O)CN5CCN(c6ccc(C7CCC(=O)NC7=O)cn6)CC5)CC4)CC3)nc(NC3CC3)c21 (mixture of isomers) [Example 123, (3RS)-3-[6-(4-{2-[4-({6-[4-(cyclopropylamino)-3-(propan-2-yl)-3H-imidazo[4,5-c]pyridin-6-yl]-2-oxo-1-[(1S,3S)-3-(piperidin-1-yl)cyclobutyl]-1,2-dihydrospiro[indole-3,4′-piperidin]-1′-yl}carbonyl)-4-methylpiperidin-1-yl]-2-oxoethyl}piperazin-1-yl)pyridin-3-yl]piperidine-2,6-dione]
13 | < 0.1 | 70 to 85 | CC(C)n1cnc2cc(-c3ccc4c(c3)N([C@H]3C[C@@H](N5CCCCC5)C3)C(=O)C43CCN(C(=O)C4CCN(C(=O)C5CCN(c6ccc(C7CCC(=O)NC7=O)c(F)c6)CC5)CC4)CC3)nc(NC3CC3)c21 (mixture of isomers) [Example 237, (3RS)-3-(4-{4-[4-({6-[4-(cyclopropylamino)-3-(propan-2-yl)-3H-imidazo[4,5-c]pyridin-6-yl]-2-oxo-1-[(1S,3S)-3-(piperidin-1-yl)cyclobutyl]-1,2-dihydrospiro[indole-3,4′-piperidin]-1′-yl}carbonyl)piperidine-1-carbonyl]piperidin-1-yl}-2-fluorophenyl)piperidine-2,6-dione]

Row | Compound | DC50 [µM] | Dmax [%]
14 | CC(C)n1cnc2cc(-c3ccc4c(c3)N([C@H]3C[C@@H](N5C6CCC5COC6)C3)C(=O)C43CCN(C(=O)C4(C)CCN(C(=O)[C@H]5CC[C@H](Oc6ccc(C7CCC(=O)NC7=O)cc6)CC5)CC4)CC3)nc(NC3CC3)c21 (mixture of isomers) [Example 193, (3RS)-3-(4-{[(1R,4R)-4-[4-({6-[4-(cyclopropylamino)-3-(propan-2-yl)-3H-imidazo[4,5-c]pyridin-6-yl]-2-oxo-1-[(1S,3S)-3-{3-oxa-8-Azabicyclo[3.2.1]octan-8-yl}cyclobutyl]-1,2-dihydrospiro[indole-3,4′-piperidin]-1′-yl}carbonyl)-4-methylpiperidine-1-carbonyl]cyclohexyl]oxy}phenyl)piperidine-2,6-dione] | 0.1 to 0.5 | 50 to 70
